Assay results published in patent publication US9796672B2, “Isoindoline compositions and methods for treating neurodegenerative disease” (Cognition Therapeutics, Inc., priority 2014, dated 2017).
Entries after “also recorded” stand apart in the source; their conditions may differ.

What was measured:
[1] = test system: Abeta oligomer-induced synapse loss in primary hippocampal neurons; assay: Abeta 1-42 oligomer binding and synapse loss assay; assay type: cell-based, rat
Procedure: Primary hippocampal neuronal culture is established as in the membrane trafficking assay above. […] Pretreatment with test compounds for 1 hr and addition of Abeta oligomers or no oligomer (vehicle alone) is followed by incubation for an additional 23 hrs.
The plates are then washed 3× with PBS for 5 min each. The plates are blocked at RT for 1 hr in 5% goat serum and 0.5% Triton X-100 in PBS. Primary antibodies (anti-MAP 2 polyclonal, Millipore #AB5622 and anti-Beta Amyloid 6E10 monoclonal, Covance #SIG-39300, at 1 microgram/ml, and rabbit polyclonal anti-synaptophysin, Anaspec, at 0.2 microgram/ml) were diluted 1:1000 in 5% goat serum with PBS. Primary antibodies are incubated overnight at 4° C. The plates are then washed 3× with PBS for 5 min each. Secondary antibodies (Alex Flor 488 polyclonal, Invitrogen #A11008 and Alexa Flor 647 monoclonal, Invitrogen #A21235) are diluted 1:1000 in 5% goat serum with PBS. Secondary antibodies are incubated at RT for 1 hr. The plates are washed once with PBS. DAPI (4′,6-diamidino-2-phenylindole, Invitrogen) is then applied at 0.03 ug/ul and incubated at RT for 5 min, then washed with PBS.

Sigma-1 receptor = Sigma-1 receptor competitive radioligand binding assay; conditions: read-out: Sigma-1 Receptor Affinity, Ki
Procedure: Radioligand binding assays for Sigma-1 receptors and Sigma-2 receptors were carried out by a commercial contract research organization. For Sigma-1 binding, various concentrations of test compounds from 100 μM to 1 nM were used to displace 8 nM [^3H](+)pentazocine from endogenous receptors on Jurkat cell membranes (Ganapathy M E et al. 1991, J Pharmacol. Exp. Ther. 289:251-260). 10 μM Haloperidol was used to define non-specific binding. […] 10 μM Haloperidol was used to define non-specific binding. Reactions were terminated by rapid filtration through Whatman GF/C filters using a Brandel 12R cell harvester followed by two washes with ice-cold buffer. Radioactivity on the dried filter discs was measured using a liquid scintillation analyzer (Tri-Carb 2900TR; PerkinElmer Life and Analytical Sciences). The displacement curves were plotted and the Ki values of the test ligands for the receptor subtypes were determined using GraphPad Prism (GraphPad Software Inc., San Diego, Calif.). The percentage specific binding was determined by dividing the difference between total bound (disintegrations per minute) and nonspecific bound (disintegrations per minute) by the total bound (disintegrations per minute).

Sigma-2 receptor = Sigma-2 receptor competitive radioligand binding assay; parameters: species or system rat; conditions: read-out: Sigma-2 Receptor Affinity, Ki
Procedure: Radioligand binding assays for Sigma-1 receptors and Sigma-2 receptors were carried out by a commercial contract research organization. For Sigma-1 binding, various concentrations of test compounds from 100 μM to 1 nM were used to displace 8 nM [^3H](+)pentazocine from endogenous receptors on Jurkat cell membranes (Ganapathy M E et al. 1991, J Pharmacol. Exp. Ther. 289:251-260). 10 μM Haloperidol was used to define non-specific binding. For Sigma-2 receptors various concentrations of test compounds from 100 μM to 1 nM were used to displace 5 nM [^3H] […] (Bowen W D, et al. 1993, Mol. Neuropharmcol 3:117-126). 10 μM Haloperidol was used to define non-specific binding. Reactions were terminated by rapid filtration through Whatman GF/C filters using a Brandel 12R cell harvester followed by two washes with ice-cold buffer. Radioactivity on the dried filter discs was measured using a liquid scintillation analyzer (Tri-Carb 2900TR; PerkinElmer Life and Analytical Sciences). The displacement curves were plotted and the Ki values of the test ligands for the receptor subtypes were determined using GraphPad Prism (GraphPad Software Inc., San Diego, Calif.). The percentage specific binding was determined by dividing the difference between total bound (disintegrations per minute) and nonspecific bound (disintegrations per minute) by the total bound (disintegrations per minute).
The affinity of candidate sigma-2 ligand compounds at sigma-1 and sigma-2 receptors was also determined by displacement of different known labeled sigma-2 or sigma-1 ligands. Filtration assays were conducted according the previously published procedure (Xu, et al., 2005). Test compounds were dissolved in N,N-Dimethylformamide (DMF), dimethyl sulfoxide (DMSO) or ethanol and then diluted in 50 mM Tris-HCl pH 7.4 buffer containing 150 mM NaCl and 100 mM EDTA. Membrane homogenates were made from guinea pig brain for sigma-1 binding assay and rat liver for sigma-2 binding assay. Membrane homogenates were diluted with 50 mM Tris-HCl buffer, pH 8.0 and incubated at 25° C. in a total volume of 150 uL in 96 well plates with the radioligand and test compounds with concentrations ranging from 0.1 nM to 10 uM. After incubation was completed, the reactions were terminated by the addition of 150 uL of ice-cold wash buffer (10 mM Tris HCl, 150 mM NaCl, pH 7.4) using a 96 channel transfer pipette (Fisher Scientific, Pittsburgh, Pa.) and the samples harvested and filtered rapidly through 96 well fiber glass filter plate (Millipore, Billerica, Mass.) that had been presoaked with 100 uL of 50 mM Tris-HCl buffer. Each filter was washed four times with 200 uL of ice-cold wash buffer (10 mM Tris-HCl, 150 mM NaCl, pH 7.4). A Wallac 1450 MicroBeta liquid scintillation counter (Perkin Elmer, Boston, Mass.) was used to quantitate the bound radioactivity.
Nonspecific binding was determined from samples that contained 10 uM of cold haloperidol.
The binding affinity, Ki values was calculated using the method of Cheng and Prusoff.

[2] = Mouse liver microsome (MLM) stability; assay type: in vitro ADME; conditions: mouse, microsomes
Procedure: A first pharmacokinetic study was performed in microsomes of mice mouse liver microsomes, MLM) by a commercial contract research organization. The studies were performed according to Obach, R. S et al. (1997) J. Pharmacol. Exp. Ther., 283: 46-58, which is incorporated herein by reference.

potassium channel hERG = potassium channel hERG (Homo sapiens (Human), UniProt Q12809); assay: In vitro toxicity, hERG inhibition; assay type: biochemical
Procedure: In vitro toxicity for Test Compounds is tested in a number of standard assays.

neuronal cultures = assay: Functional neuronal phenotype in neuronal cultures; assay type: cell-based; parameters: key: Antagonist: antagonists (block Abeta signaling); Agonist: agonists (block Abeta signaling with U-shaped dose-response curve and toxicity at high doses); Inactive: inactive (no effect in neuronal cultures)
Procedure: Neuronal cultures are treated with various concentrations of sigma compounds for 24 hours and nuclear intensity compared to vehicle is measured.

[3] = test system: Abeta oligomer-induced membrane trafficking deficits in primary hippocampal neurons; assay: Membrane trafficking/exocytosis (MTT) assay; conditions: read-out: Membrane Trafficking EC50; compound dosed prior to Abeta oligomer addition
Procedure: Primary hippocampal neurons from E18 Sprague-Dawley rat embryos were plated at optimized concentrations in 384 well plates in NB media (Invitrogen). Neurons were maintained in cultures for 3 weeks, with twice weekly feeding of NB media with N2 supplement (Invitrogen).
MTT reagent (3-(4,5-dimethylthizaol-2yl)-2,5diphenyl tetrazolium bromide) (Roche Molecular Biochemicals) was reconstituted in phosphate buffered saline to 5 mg/mL. 10 μL of MTT labeling reagent is added to each well and incubated at 37° C. for 1 h, then imaged. Exocytosis was assessed by automated microscopy and image processing to quantify the amount of endocytosed and exocytosed formazan.
Each assay plate was formatted so that compounds are tested with and without Abeta oligomer on each plate. […] Reduced formazan was first visible in intracellular vesicles. […] The dye precipitated in the aqueous environment of the culture and formed needle-shaped crystals on the surface of the neuron.

[4] = test system: MDA-MB-435 or MDA-MB231 or SKOV-3 cells; assay: Tumor cell viability (MTS) assay; assay type: cell-based
Procedure: The cytotoxicity of test compounds is determined using the CellTiter96 Aqueous One Solution Assay (Promega, Madison, Wis.). Briefly, MDA-MB-435 or MDA-MB231 or SKOV-3 cells were seeded in a 96-well plate at a density of 2000 cells/well on the day prior to treatment with sigma-2 receptor selective ligands. […] The plate is read at 490 nm in a Victor3 plate reader (PerkinElmer Life and Analytical Sciences, Shelton, Conn.). The EC^50 value, defined as the concentration of the sigma ligand required to inhibit cell viability by 50% relative to untreated cells, is determined from the dose response curve for each cell line. Siramesine is accepted as an agonist.

neurons = conditions: 24 hours treatment; cited from earlier work
caspase-3 = conditions: cited from earlier work; for caspase-3 activation: tumor cells and neurons

potassium channel hERG, sequence (Q12809 whole entry): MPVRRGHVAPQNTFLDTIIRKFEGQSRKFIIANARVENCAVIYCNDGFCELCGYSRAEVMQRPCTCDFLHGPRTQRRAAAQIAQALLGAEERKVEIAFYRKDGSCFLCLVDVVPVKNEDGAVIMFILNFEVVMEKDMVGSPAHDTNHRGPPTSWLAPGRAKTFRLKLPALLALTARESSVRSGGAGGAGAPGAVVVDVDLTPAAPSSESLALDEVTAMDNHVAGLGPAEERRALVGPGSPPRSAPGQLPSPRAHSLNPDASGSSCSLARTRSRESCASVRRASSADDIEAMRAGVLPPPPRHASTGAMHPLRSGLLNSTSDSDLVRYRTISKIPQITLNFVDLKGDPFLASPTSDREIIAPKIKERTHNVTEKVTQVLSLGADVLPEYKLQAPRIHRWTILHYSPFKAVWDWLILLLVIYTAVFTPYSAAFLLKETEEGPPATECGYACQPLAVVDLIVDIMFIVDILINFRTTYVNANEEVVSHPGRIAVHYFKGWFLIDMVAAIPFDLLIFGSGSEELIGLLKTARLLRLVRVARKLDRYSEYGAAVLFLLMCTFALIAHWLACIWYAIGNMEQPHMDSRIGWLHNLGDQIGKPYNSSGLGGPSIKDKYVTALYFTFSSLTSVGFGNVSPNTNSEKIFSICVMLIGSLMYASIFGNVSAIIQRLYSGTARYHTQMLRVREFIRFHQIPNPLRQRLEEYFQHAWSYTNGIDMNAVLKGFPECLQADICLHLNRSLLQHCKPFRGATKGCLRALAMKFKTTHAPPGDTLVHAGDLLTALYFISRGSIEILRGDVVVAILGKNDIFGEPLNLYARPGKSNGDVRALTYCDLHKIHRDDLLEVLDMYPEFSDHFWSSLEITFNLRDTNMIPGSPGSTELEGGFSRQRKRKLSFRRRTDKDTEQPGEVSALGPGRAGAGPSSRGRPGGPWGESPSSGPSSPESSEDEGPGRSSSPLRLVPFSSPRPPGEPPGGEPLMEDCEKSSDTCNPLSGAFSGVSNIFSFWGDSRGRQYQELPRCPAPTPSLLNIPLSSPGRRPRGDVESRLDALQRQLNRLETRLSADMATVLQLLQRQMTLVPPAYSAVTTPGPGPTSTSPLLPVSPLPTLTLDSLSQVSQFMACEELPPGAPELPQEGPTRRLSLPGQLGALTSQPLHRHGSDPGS

| SMILES | elimination of Abeta oligomer-induced synapse loss [1] | synapse loss recovery [1] [%] | Ki (Sigma-1 receptor) [nM] | Ki (Sigma-2 receptor) [nM] | Mouse liver microsomes, MLM t½ [2] [min] | IC50 (potassium channel hERG) [nM] | neuronal phenotype (neuronal cultures) | EC50 [3] [nM] | Action [4] | IC50 ([4]; read-out: IC50, 48 hrs., Tumor cell viability, 48 hrs) [nM] | nuclear morphology / nuclear intensity in neurons (neurons) | caspase-3 activation (caspase-3) | inhibition of caspase-3 activation (caspase-3; tumor cells) |
| --- | --- | --- | --- | --- | --- | --- | --- | --- | --- | --- | --- | --- | --- |
| CCCN(CCC)CCc1ccc(OC)c(OCCc2ccccc2)c1 [NE-100] | completely eliminated synapse loss |  |  |  |  |  |  |  |  |  |  |  |  |
| CCC(Oc1ccc(Cl)cc1)C(=O)OC1CC2CCC(C1)N2C (stereo not drawn) [SM-21] | only weakly active in eliminating synapse loss | 20 |  |  |  |  |  |  |  |  |  |  |  |
| CC(C)(CCc1ccc(O)c(OC(F)(F)F)c1)N1Cc2cccc(F)c2C1 [compound 54] |  |  | 74 | 18 | 12 | 2500 | Antagonist | 6500 |  |  |  |  |  |
| C[C@H](CCc1ccc(Cl)c(Cl)c1)N1Cc2cccc(F)c2C1 [compound 9] |  |  | 17 | 3.6 | 12 | 6700 | Antagonist | 220 |  |  |  |  |  |
| CC(C)Oc1cc(CCC(C)(C)N2Cc3cc4c(cc3C2)OCO4)ccc1O [compound 29] |  |  | 47 | 13 | 6 | 540 | Inactive/ | > 20000 |  |  |  |  |  |
| CN(C)C(=O)c1cccc2c1CN(C(C)(C)CCc1ccc(O)c(OC(F)(F)F)c1)C2 [compound 57] |  |  | 700 | 95 | 26 | 5000 | Inactive | > 20000 |  |  |  |  |  |
| COc1cc2c(cc1OC)CN([C@H](C)CCc1ccc(Cl)c(Cl)c1)C2 [compound 11] |  |  | 14 | 0.44 | 61 | 290 | Antagonist | 700 |  |  |  |  |  |
| O=C(CCCN1CCC(O)(c2ccc(Cl)cc2)CC1)c1ccc(F)cc1 [haloperidol] | completely eliminated synapse loss |  |  |  |  |  |  |  |  |  |  |  |  |
| C[C@H](CCc1ccc(Cl)c(Cl)c1)N1Cc2ccc3ccccc3c2C1 [compound 19] |  |  | 69 | 1.8 | 25 | 98000 | Weak | 270 |  |  |  |  |  |
| C[C@H](CCc1ccc(O)c(OC(F)(F)F)c1)N1Cc2cc3c(cc2C1)OCO3 [compound 24] |  |  | 4.9 | 52 | 5 | 860 | Antagonist | 500 |  |  |  |  |  |
| C[C@H](CCc1ccc(F)cc1)N1Cc2ccc(F)cc2C1 [compound 22] |  |  | 44 | 23 | 7 | 350 | Antagonist | < 250 |  |  |  |  |  |
| COc1cc(CCC(C)(C)N2Cc3ccc(F)cc3C2)ccc1OCCO [compound 45] |  |  | 2800 | 190 | 96 | 220 | Inactive | > 20000 |  |  |  |  |  |
| CC(C)Oc1cc(CC[C@@H](C)N2Cc3cc4c(cc3C2)OCO4)ccc1O [compound 25] |  |  | 5.7 | 110 | 4 | 3200 | Inactive/ | > 20000 |  |  |  |  |  |
| COc1cc(CC[C@@H](C)N2Cc3ccc(F)cc3C2)ccc1OCCO [compound 30] |  |  | 220 | 910 | 126 | 4700 | Antagonist | 300 |  |  |  |  |  |
| C[C@H](CCc1ccc(Cl)c(Cl)c1)N1Cc2cc3c(cc2C1)OCO3 [compound 10] |  |  | 1.4 | 5 | 8 | 41000 | Antagonist | 500 |  |  |  |  |  |
| CC(C)Oc1cc(CCC(C)(C)N2Cc3cccc(F)c3C2)ccc1O [compound 28] |  |  | 120 | 11 | 4 | 9600 | Antagonist | 70 to 80 |  |  |  |  |  |
| COc1cc(CCC(C)(C)N2Cc3cccc(F)c3C2)ccc1O [compound 53] |  |  | 110 | 17 | 21 | 2800 | Inactive | > 20000 |  |  |  |  |  |
| COc1ccc(C)cc1NC(=O)OC1C[C@H]2CCC[C@@H](C1)N2CCCCCCN (stereo partly drawn) [SV-119] |  |  |  |  |  |  |  |  | Full agonist | 21700 ± 2900 | cause significant abnormal nuclear morphology in neurons | activate caspase-3 in tumor cells and neurons |  |
| COc1cc(CC[C@@H](C)N2Cc3cc4c(cc3C2)OCO4)ccc1OCCO [compound 52] |  |  | 130 | 540 | 97 | 3200 | Antagonist | 300 |  |  |  |  |  |
| Fc1ccc(-n2cc(CCCCN3CCC4(CC3)OCc3ccccc34)c3ccccc32)cc1 [Siramesine] |  |  |  |  |  |  |  |  | Full agonist |  | cause significant abnormal nuclear morphology in neurons | activate caspase-3 in tumor cells and neurons; also recorded: induces caspase-3 activity |  |
| CC(C)(C)Oc1cc(CCC(C)(C)N2Cc3ccc(S(C)(=O)=O)cc3C2)ccc1O [compound 62] |  |  | 63 | 8.5 | 45 | 26000 | Antagonist | 60 |  |  |  |  |  |
| C[C@H](CCc1ccc(O)c(OC(F)(F)F)c1)N1Cc2ccc(F)cc2C1 [compound 31] |  |  | 3.7 | 58 | 6 | 1900 | Antagonist | < 250 |  |  |  |  |  |
| CC(C)(CCc1ccc(F)cc1)N1Cc2cc3c(cc2C1)OCO3 [compound 36] |  |  | 4.1 | 5.2 | 47 | 19 | Antagonist | 860 |  |  |  |  |  |
| CC(C)(CCc1ccc(F)cc1)N1Cc2ccc(F)cc2C1 [compound 35] |  |  | 2.1 | 3.6 | 9 | 130 | Antagonist | 2200 |  |  |  |  |  |
| COc1cc2c(cc1OC)CN(CCCCNC(=O)c1cc(C)ccc1OC)CC2 [RHM-1, N-[4-(3,4-dihydro-6,7-dimethoxyisoquinolin-2(1H)-yl)butyl]-2-methoxy-5-methylbenzamide] |  |  |  |  |  |  |  |  | Antagonist |  | do not decrease nuclear intensity | do not induce caspase-3 activity | inhibits the activation in tumor cells |
| C[C@H](CCc1ccc(O)c(OC(C)(C)C)c1)N1Cc2c(F)ccc(F)c2C1 [60A] |  |  | 410 | 1600 | 5 | 100000 | Antagonist | > 20000 |  |  |  |  |  |
